Columns and labels:
[1] = system: TMD-8 human activated B cell diffuse large B cell lymphoma cells; test: TMD-8 survival assay; type: cell-based; details: TMD8, TMD-8 cells, 72 h treatment, Cell Titer-Glo
Description: BTK inhibitors affect the survival of B-cell lymphomas. TMD-8 human activated B cell diffuse large B cell lymphoma cells were seeded in 96-well plates at a density of 20,000 cells/well in HyClone RPMI supplemented with 10% FBS (Fisher)/1% Penicillin/Streptomycin (HyClone) and incubated at 37° C., 5% CO2. Cells were treated in triplicate with 1,000 nM or 100 nM curves of compounds for 72 h. Cell survival was measured by Cell Titer-Glo Luminescent Assay (Promega). EC50 values (50% proliferation in the presence of compound as compared to vehicle treated controls) were calculated from dose response compound curves using GraphPad Prism Software.

[2] = target: T1, human BTK kinase (hBTK) (Homo sapiens, UniProt Q06187); test: BTK kinase inhibition assay (Kinase Profiler radiometric protein kinase assay, Eurofins); type: biochemical; details: radiometric [γ-33P-ATP] assay, 40 minutes at room temperature, 250 μM substrate
T1 construct: purchased Eurofins Pharma Discovery Services UK Limited (contract assay, Kinase Profiler)
Description: In vitro potency of selected compound was defined against human BTK kinase (hBTK) using Kinase Profiler radiometric protein kinase assays performed at Eurofins Pharma Discovery Services UK Limited.
hBTK kinase is diluted in buffer and all compounds were prepared to 50× final assay concentration in 100% DMSO. This working stock of the compound was added to the assay well as the first component in the reaction, followed by the remaining components as detailed in the assay protocol listed above. The reaction was initiated by the addition of the MgATP mix. The kinase reaction was performed at room temperature for 40 minutes in presence of 250 μM substrate, 10 mM MgAcetate, [γ-33P-ATP] (specific activity approx. 500 cpm/pmol, concentration as required) and variable test article concentrations. The ATP concentrations in the assays were with 15 μM of the apparent. The reaction was stopped by the addition of 3% phosphoric acid solution. 10 μL of the reaction is then spotted onto a P30 filtermat and washed three times for 5 minutes in 75 mM phosphoric acid and once in methanol prior to drying and scintillation counting. In addition positive control wells contain all components of the reaction, except the compound of interest; however, DMSO (at a final concentration of 2%) were included in these wells to control for solvent effects as well as blank wells contain all components of the reaction, with a reference inhibitor replacing the compound of interest. This abolishes kinase activity and establishes the base-line (0% kinase activity remaining).

[3] = target: BTK (Homo sapiens, UniProt Q06187); test: BTK enzyme off-rate determination (dilution kinetic experiments); type: biochemical; details: 10-30 nM compound pre-incubated with 7 nM enzyme, 1000 uM ATP, 1 h, diluted 250×, monitored 8 h
Description: 10-30 nM compound was pre-incubated with 7 nM enzyme in the presence of 1000 uM ATP for 1 h. The [I]-[E] complex was diluted 250× into an assay buffer with 1000 uM ATP and 2uM substrate peptide. Enzyme activity in the diluted samples was monitored in real time assay over period of 8 h. The progress curves were fit with time dependent equation to determine apparent Kobs and residence time of the compound. […] Consistent with covalent inhibition of BTK.

[4] = system: Splenocytes; test: Splenic cell proliferation assay (anti-IgM stimulated); type: cell-based; details: Splenocyte; CD1 mouse splenocytes, 1 h pre-treatment, 2.5 ug/ml anti-IgM F(ab')2 for 72 h, Cell Titer-Glo; read-out: EC50 (inhibition of splenic cell proliferation)
Description: Proliferation of splenocytes in response to anti-IgM can be blocked by inhibition of Btk.
Splenocytes were obtained from 6 week old male CD1 mice (Charles River Laboratories Inc.). Mouse spleens were manually disrupted in PBS and filtered using a 70 um cell strainer followed by ammonium chloride red blood cell lysis. Cells were washed, resuspended in Splenocyte Medium (HyClone RPMI supplemented with 10% heat-inactivated FBS, 0.5× non-essential amino acids, 10 mM HEPES, 50 uM beta mercaptoethanol) and incubated at 37° C., 5% CO2 for 2 h to remove adherent cells. Suspension cells were seeded in 96 well plates at 50,000 cells per well and incubated at 37° C., 5% CO2 for 1 h. Splenocytes were pre-treated in triplicate with 10,000 nM curves of Formula 1 compounds for 1 h, followed by stimulation of cell proliferation with 2.5 ug/ml anti-IgM F(ab′)2 (Jackson ImmunoResearch) for 72 h. Cell proliferation was measured by Cell Titer-Glo Luminescent Assay (Promega). EC50 values (50% proliferation in the presence of compound as compared to vehicle treated controls) were calculated from dose response compound curves using GraphPad Prism Software EC50 values are reported in Table 3: […]

BTK, sequence (Q06187 whole entry): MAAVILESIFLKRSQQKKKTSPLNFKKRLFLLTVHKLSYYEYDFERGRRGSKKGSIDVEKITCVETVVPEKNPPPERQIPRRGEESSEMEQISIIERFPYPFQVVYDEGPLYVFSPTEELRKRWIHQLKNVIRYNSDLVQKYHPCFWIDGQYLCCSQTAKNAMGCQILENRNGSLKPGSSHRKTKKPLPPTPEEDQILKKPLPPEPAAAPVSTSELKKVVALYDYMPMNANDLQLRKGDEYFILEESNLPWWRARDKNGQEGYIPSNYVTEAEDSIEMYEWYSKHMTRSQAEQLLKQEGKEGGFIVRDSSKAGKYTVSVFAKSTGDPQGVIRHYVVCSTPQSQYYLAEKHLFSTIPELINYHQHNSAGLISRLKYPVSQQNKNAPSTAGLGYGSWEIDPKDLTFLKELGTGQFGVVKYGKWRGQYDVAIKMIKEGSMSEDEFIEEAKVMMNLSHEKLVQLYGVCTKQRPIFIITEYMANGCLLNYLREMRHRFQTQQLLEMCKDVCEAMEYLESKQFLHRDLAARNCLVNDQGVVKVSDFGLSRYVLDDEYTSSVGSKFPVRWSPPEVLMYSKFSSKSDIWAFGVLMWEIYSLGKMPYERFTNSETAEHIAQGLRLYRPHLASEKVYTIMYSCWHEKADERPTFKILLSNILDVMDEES
T1 sequence (Q06187 whole entry): as above

- IC50 [2]: 8 nM
- Residence time half life (1/Kobs) [3]: >10 h
- residence time ([3]; read-out: Residence time half life (1/Kobs)): > 600 min
Structure (SMILES): C=CC(=O)N[C@H]1C[C@@H](n2nc(-c3ccc(Oc4cc(F)cc(OCc5cnc(C)nc5)c4)cc3)c3c(N)ncnc32)C1 [Compound 27]
- EC50 [1]: 4.7 nM
- EC50 [4]: 0.8 nM
